Laboratory results from patent US9511059B2, “Antiviral compounds” (priority 2013, dated 2016).

What was measured:
Assay in all cases: microbe, parasite or virus in culture
[1] = test system: Pseudotyped HCV GT1b particles (HCVpp); format: cell-based, Hepatitis C virus GT1b Con1 strain; details: Hepatitis C virus, 72 h, read-out: HCVpp GT-1b (EC50, μM)
[2] = test system: pseudotyped VSV G particles (VSVpp); format: cell-based; details: Vesicular stomatitis virus, 72 h, read-out: VSVpp (EC50, μM)
[3] = test system: Pseudotyped HCV GT1a particles (HCVpp); format: cell-based, Hepatitis C virus GT1a H77 strain; details: Hepatitis C virus, 72 h, read-out: HCVpp GT-1a (EC50, μM)

| Compound | EC50 [1] [µM] | EC50 [2] [µM] | EC50 [3] [µM] |
| --- | --- | --- | --- |
| CN(c1ccc(Sc2ccccc2)c(Cl)c1)c1n[nH]c(N)n1 [Compound 24, N3-(3-chloro-4-(phenylthio)phenyl)-N3-methyl-1H-1,2,4-triazole-3,5-diamine] | 42.1 | 100 | – |
| Nc1nc(Nc2ccc(Sc3ccccc3)c(Cl)c2)n[nH]1 [Compound 22, N3-(3-chloro-4-(phenylthio)phenyl)-1H-1,2,4-triazole-3,5-diamine] | 0.229 | 14.3 | 1.65 |
| Nc1nc(Nc2ccc(S(=O)(=O)c3ccccc3)c(Cl)c2)n[nH]1 [Compound 23, N3-(3-chloro-4-(phenylsulfonyl)phenyl)-1H-1,2,4-triazole-3,5-diamine] | 0.517 | 40.1 | 4.62 |
| COc1ccc(Sc2c(Cl)cc(Nc3n[nH]c(N)n3)cc2Cl)cc1 [Compound 16, N*3*-[3,5-Dichloro-4-(4-methoxy-phenylsulfanyl)-phenyl]-1H-[1,2,4]triazole-3,5-diamine] | – | 40.2 | 1.02 |
| Nc1nc(Nc2ccc(Nc3ccccc3)c(Cl)c2)n[nH]1 [Compound 2, N*3*-(3-Chloro-4-phenylamino-phenyl)-1H-[1,2,4]triazole-3,5-diamine] | 0.393 | 86 | 2.44 |
| Nc1nc(Nc2cc(Cl)cc(OCc3ccccc3)c2)n[nH]1 [Compound 21, N*5*-(3-Benzyloxy-5-chloro-phenyl)-1H-[1,2,4]triazole-3,5-diamine] | – | 39.2 | 1.67 |
| Nc1nc(Nc2cc(Cl)c(S(=O)(=O)c3ccccc3)c(Cl)c2)n[nH]1 [Compound 6, N*3*-(4-Benzenesulfonyl-3,5-dichloro-phenyl)-1H-[1,2,4]triazole-3,5-diamine] | – | 34 | 0.139 |
| N#Cc1ccc([S+]([O-])c2c(Cl)cc(Nc3n[nH]c(N)n3)cc2Cl)cc1 (stereo not shown) [Compound 13, 4-[4-(5-Amino-1H-[1,2,4]triazol-3-ylamino)-2,6-dichloro-benzenesulfinyl]-benzonitrile] | – | 10 | 0.674 |
| N#Cc1ccc(S(=O)(=O)c2c(Cl)cc(Nc3n[nH]c(N)n3)cc2Cl)cc1 [Compound 14, 4-[4-(5-Amino-1H-[1,2,4]triazol-3-ylamino)-2,6-dichloro-benzenesulfonyl]-benzonitrile] | – | 10 | 0.366 |
| CS(=O)(=O)c1ccc(Oc2c(Cl)cc(Nc3n[nH]c(N)n3)cc2C(F)(F)F)cc1 [Compound 20, N*3*-[3-Chloro-4-(4-methanesulfonyl-phenoxy)-5-trifluoromethyl-phenyl]-1H-[1,2,4]triazole-3,5-diamine] | – | 10 | 0.232 |
| Nc1nc(Nc2cc(Cl)c(Sc3cccc(C(F)(F)F)c3)c(Cl)c2)n[nH]1 [Compound 9, N3-(3,5-dichloro-4-(3-(trifluoromethyl)phenylthio)phenyl)-1H-1,2,4-triazole-3,5-diamine] | – | 3 | 0.15 |
| CS(=O)(=O)c1ccc(Oc2c(Cl)cc(Nc3n[nH]c(N)n3)cc2Cl)cc1 [Compound 19, N*3*-[3,5-Dichloro-4-(4-methanesulfonyl-phenoxy)-phenyl]-1H-[1,2,4]triazole-3,5-diamine] | 0.008 | 20.2 | 0.019 |
| Nc1nc(Nc2cc(Cl)cc(Oc3ccccc3)c2)n[nH]1 [Compound 25, N*3*-(3-Chloro-5-phenoxy-phenyl)-1H-[1,2,4]triazole-3,5-diamine] | 1.9 | 100 | – |
| Nc1nc(Nc2cc(Cl)c([S+]([O-])c3ccc(C(F)(F)F)cc3)c(Cl)c2)n[nH]1 (stereo not shown) [Compound 8, N3-(3,5-dichloro-4-(4-(trifluoromethyl)phenylsulfinyl)phenyl)-1H-1,2,4-triazole-3,5-diamine] | 0.079 | 10 | 0.114 |
| Nc1nc(Nc2cc(Cl)c(Sc3ccccc3C(F)(F)F)c(Cl)c2)n[nH]1 [Compound 10, N*3*-[3,5-Dichloro-4-(2-trifluoromethyl-phenylsulfanyl)-phenyl]-1H-[1,2,4]triazole-3,5-diamine] | – | 7.7 | 0.263 |
| Nc1n[nH]c(Nc2cc(F)c(Sc3ccccc3)c(C(F)(F)F)c2)n1 [Compound 1, N^5-(3-Fluoro-4-phenylsulfanyl-5-trifluoromethylphenyl)-1H-[1,2,4]-triazole-3,5-diamine] | – | 13.2 | 0.31 |
| Nc1nc(Nc2ccc(Oc3ccccc3)c(Cl)c2)n[nH]1 [Compound 3, N*3*-(3-Chloro-4-phenoxy-phenyl)-1H-[1,2,4]triazole-3,5-diamine] | 0.329 | 35.5 | 2.77 |
| Nc1nc(Nc2cc(Cl)c([S+]([O-])c3ccccc3)c(Cl)c2)n[nH]1 (stereo not shown) [Compound 5, N*3*-(4-Benzenesulfinyl-3,5-dichloro-phenyl)-1H-[1,2,4]triazole-3,5-diamine] | – | 25.3 | 0.293 |
| N#Cc1ccc(Sc2c(Cl)cc(Nc3n[nH]c(N)n3)cc2Cl)cc1 [Compound 12, 4-[4-(5-Amino-1H-[1,2,4]triazol-3-ylamino)-2,6-dichloro-phenylsulfanyl]-benzonitrile] | – | 3.4 | 0.077 |
| COC(=O)c1ccc(Sc2c(Cl)cc(Nc3n[nH]c(N)n3)cc2C(F)(F)F)cc1 [Compound 15, 4-[4-(5-Amino-1H-[1,2,4]triazol-3-ylamino)-2-chloro-6-trifluoromethyl-phenylsulfanyl]-benzoic acid methyl ester] | – | 49.8 | 0.133 |
| COc1ccc(S(=O)(=O)c2c(Cl)cc(Nc3n[nH]c(N)n3)cc2Cl)cc1 [Compound 18, N*3*-[3,5-Dichloro-4-(4-methoxy-benzenesulfonyl)-phenyl]-1H-[1,2,4]triazole-3,5-diamine] | – | 0.1 | 0.126 |
| Nc1nc(Nc2cc(Cl)c(Oc3ccccn3)c(Cl)c2)n[nH]1 [Compound 26, N*3*-[3,5-Dichloro-4-(pyridin-2-yloxy)-phenyl]-1H-[1,2,4]triazole-3,5-diamine] | – | 43.5 | 1.88 |
| Nc1nc(Nc2cc(Cl)c(Sc3ccc(C(F)(F)F)cc3)c(Cl)c2)n[nH]1 [Compound 7, N3-(3,5-dichloro-4-(4-(trifluoromethyl)phenylthio)phenyl)-1H-1,2,4-triazole-3,5-diamine] | 0.009 | 100 | – |
| Nc1nc(Nc2cc(Cl)c([S+]([O-])c3cccc(C(F)(F)F)c3)c(Cl)c2)n[nH]1 (stereo not shown) [Compound 11, N^3-[3,5-Dichloro-4-(3-trifluoromethyl-benzenesulfinyl)-phenyl]-1H-[1,2,4]triazole-3,5-diamine] | – | 10 | 0.61 |
| COc1ccc(Sc2c(Cl)cc(Nc3n[nH]c(N)n3)cc2C(F)(F)F)cc1 [Compound 17, N*3*-[3-Chloro-4-(4-methoxy-phenylsulfanyl)-5-trifluoromethyl-phenyl]-1H-[1,2,4]triazole-3,5-diamine] | – | 34.9 | 1.04 |
| Nc1nc(Nc2cc(Cl)c(Sc3ccccc3)c(Cl)c2)n[nH]1 [Compound 4, N*3*-(3,5-Dichloro-4-phenylsulfanyl-phenyl)-1H-[1,2,4]triazole-3,5-diamine] | – | 3.3 | 0.076 |
